Laboratory results published in publication PMC4728427, “Mechanism of allosteric activation of TMEM16A/ANO1 channels by a commonly used chloride channel blocker” (British Journal of Pharmacology, 2016).

Molecular target: T1, Mouse TMEM16A (Mus musculus, UniProt Q8BHY3)
T1 construct: expressed in transfected cells; host or cells: HEK-293T
T1 sequence (Q8BHY3 1-960): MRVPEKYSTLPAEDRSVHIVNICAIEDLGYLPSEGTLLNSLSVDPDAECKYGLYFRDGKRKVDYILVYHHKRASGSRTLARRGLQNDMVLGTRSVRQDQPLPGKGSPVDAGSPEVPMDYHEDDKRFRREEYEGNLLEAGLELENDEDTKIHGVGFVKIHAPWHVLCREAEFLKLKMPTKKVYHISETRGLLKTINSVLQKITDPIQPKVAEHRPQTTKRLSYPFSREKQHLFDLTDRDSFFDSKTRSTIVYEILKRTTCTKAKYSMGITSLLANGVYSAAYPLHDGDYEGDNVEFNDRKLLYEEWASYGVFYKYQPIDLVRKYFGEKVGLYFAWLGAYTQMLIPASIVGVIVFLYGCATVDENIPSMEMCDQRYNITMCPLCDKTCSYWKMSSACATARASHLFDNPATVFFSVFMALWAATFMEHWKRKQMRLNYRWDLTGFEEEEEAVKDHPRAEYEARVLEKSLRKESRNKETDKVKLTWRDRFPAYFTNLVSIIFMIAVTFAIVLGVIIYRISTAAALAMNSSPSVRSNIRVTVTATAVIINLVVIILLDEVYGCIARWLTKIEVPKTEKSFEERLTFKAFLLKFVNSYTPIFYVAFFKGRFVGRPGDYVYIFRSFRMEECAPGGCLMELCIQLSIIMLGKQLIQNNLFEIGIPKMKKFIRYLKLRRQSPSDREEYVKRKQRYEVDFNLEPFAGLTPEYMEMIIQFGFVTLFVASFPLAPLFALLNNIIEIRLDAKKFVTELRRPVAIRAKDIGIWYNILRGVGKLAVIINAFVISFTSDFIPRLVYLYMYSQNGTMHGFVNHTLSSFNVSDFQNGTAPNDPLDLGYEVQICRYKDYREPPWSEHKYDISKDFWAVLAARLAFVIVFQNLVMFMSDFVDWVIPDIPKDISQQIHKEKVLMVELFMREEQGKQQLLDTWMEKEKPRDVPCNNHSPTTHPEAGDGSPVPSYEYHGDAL
Assay: Whole-cell TMEM16A current versus Vm relationship with extracellular A9C, 300 nM [Ca2+]i
Assay type: cell-based
Protocol: Mouse TMEM16A (GenBank NM_178642) subcloned into pcDNA3.1 vector was used in this study (Alexander et al., 2013). HEK‐293T cells were cultured as previously described (Smith et al., 2013) and transfected with 0.5–1 μg of TMEM16A and 0.1 μg of CD8 constructs using Fugene HD (Promega, Madison, WI, USA) according to the manufacturer's instructions. Cells were used ~12–36 h after transfection. Transfected cells were visualized using the anti‐CD8 antibody‐coated beads method (Jurman et al., 1994).
TMEM16A currents were measured with the whole‐cell or inside‐out patch configuration of the patch‐clamp technique as detailed in the Supporting Information. The exchange of solutions was achieved by using a local perfusion system consisting of eight tubes of 1.2 mm diameter in which the tip of the patch pipette was inserted. In some experiments, ultra‐rapid (<50 ms) changes in A9C concentration ([A9C]) (‘concentration jumps’) were achieved using a computer‐controlled perfusion system (Warner Instruments, Hamden, CT, USA).
The intracellular solution contained (mM) 130 CsCl, 10 EGTA, 1 MgCl2, 10 HEPES and 8 CaCl2 to obtain ~300 nM of [Ca^2+]i; pH was adjusted to 7.3 with NaOH. The intracellular solutions containing ~600 nM, ~1000 nM and ~12.5 μM [Ca^2+]i were obtained by replacing EGTA with equimolar H‐EDTA and by adding 2.1, 3.1 and 7.8 mM CaCl2 respectively. The extracellular solution contained (mM) 150 NaCl, 1 CaCl2, 1 MgCl2, 10 glucose, 10 D‐mannitol and 10 HEPES; pH was adjusted to 7.4 with NaOH. […] A9C was dissolved in DMSO (stock concentration, 300 mM); thus, the final concentration of DMSO was ≤1%. Aliquots of the stock solution were kept at −20° and used within 5 days.
Current versus V m relationships were constructed by measuring currents in response to 1 s V m steps (test pulses) from −100 to +100 mV in 40 mV increments (unless stated otherwise) after a 1 s V m step to +70 mV (pre‐pulse). Pulses were elicited every 2 s from a holding V m of 0 mV. Steady‐state currents were measured at the end of the test pulses. As detailed in the Results, in the presence of 300 nM [Ca^2+]i and extracellular A9C, the test‐pulse currents reached a peak within the first ~50 ms of the test pulse. These peak currents were also measured and plotted against the V m of the test pulse. Current density was obtained by dividing the current amplitude for the cell capacitance.
For determination of the current reversal potential (E rev), instantaneous currents were estimated from extrapolation of single exponential fits of the test‐pulse currents to the beginning of each test pulse. These instantaneous current values were plotted as a function of the V m, and the relative chord conductance was measured between an interval of ±20 m V around the E rev (Tammaro et al., 2005; Adomaviciene et al., 2013).
The project began by examining if this also applies to cloned TMEM16A channels. In the presence of increasing extracellular [A9C] ([A9C]ext), a pre‐pulse of +70 mV was used to open TMEM16A channels followed by a series of test pulses (Figure 1).
Ta C.M., Adomaviciene A., Rorsman N., Garnett H. and Tammaro P.
SUPPLEMENTARY INFORMATION
TMEM16A currents were measured with the whole-cell or inside-out configuration of
the patch-clamp technique using an Axon 200B amplifier (Molecular Devices, USA)
controlled with GE-pulse software (http://users.ge.ibf.cnr.it/pusch/programs-mik.htm).
Currents were filtered at 2-5 kHz and sampled at 10 kHz, unless stated otherwise. […]

O=C(O)c1c2ccccc2cc2ccccc12 [A9C, Anthracene‐9‐carboxylic acid]
peak current at −100 mV relative to control (3000 μM A9C extracellular): ~ 13 folds
steady-state current decrease (3000 μM [A9C]ext, Vm > 60 mV, whole-cell): up to approximately threefold
E rev of TMEM16A currents (3000 μM [A9C]ext, control 4.5 ± 1.4 mV): 8.3 ± 1.4 mV
steady-state current increase ([A9C]ext ≤ 100 μM, Vm > 60 mV, whole-cell): ~ 1.3 folds
steady-state current change at Vm ≤ 60 mV (any [A9C]ext tested (30-3000 μM)): did not change substantially
